Results: US20130217723A1, “Pharmaceutical Composition Combining Tenatoprazole and an Anti-Inflammatory Agent” (priority 2002, published 2013)
Like-named read-outs stand apart in the source and are kept apart here.

Tests used:
[1] = Phase I pharmacokinetic study of oral tenatoprazole, single dose and daily dose for 7 days; assay type: in vivo, human (Caucasian individuals); settings: for half-life: human, plasma, oral, depending on the dose (10-80 mg), read-out: mean elimination half-lives
Procedure: The doses tested were 10, 20, 40 and 80 mg of tenatoprazole.
In this table, the abbreviations employed have the following meanings: • Cmax maximum concentration • Tmax time required to attain maximum concentration • T1/2 elimination half-life • AUC0-t area under the curve, between time 0 and the last measurable concentration.

[2] = patients under treatment; cited from earlier work

Structure (SMILES) | plasma half-life/pump regeneration time ratio ([1]; compared with other proton pump inhibitors) | half-life ([1]; after a single dose) [h] | half-life ([1]; after administration for seven days) [h] | Cmax, AUC0-t and AUC0-inf values versus dose ([1]; single or repeated administration, AUC0-inf calculated by extrapolation) | percentage of minor disorders observed in patients: dyspeptic symptoms [2] [%] | percentage of minor disorders observed in patients: gastric pain [2] [%] | percentage of minor disorders observed in patients: nausea [2] [%]
COc1ccc2[nH]c([S+]([O-])Cc3ncc(C)c(OC)c3C)nc2n1 (stereo not shown) [tenatoprazole, 5-methoxy-2-[[(4-methoxy-3,5-dimethyl-2-pyridyl)methyl]sulfinyl]imidazo[4,5-b]pyridine] | notably higher than that seen with other proton pump inhibitors | 5 to 6 | 5 to 9.5 | increased in a linear fashion | – | – | –
Cc1ccc(-c2cc(C(F)(F)F)nn2-c2ccc(S(N)(=O)=O)cc2)cc1 [celecoxib] | – | – | – | – | 4.8 | 4.8 | 2.4
